Source: the supplement of paper PMC10307832

Experiments:
Assay in all cases: relative viability (nuclei count vs DMSO), 5 days (fraction); higher = more cells survive
HCC-15 = tested on: HCC-15
Method in brief: (§1)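 A single step with final 0.05% Triton X-100, 1% formaldehyde and 1 ug/ml Hoechst fixed the cells and stained nuclei 5 days after treatment. Lung cancer cell lines in 1536-well plates had been treated by pin tool the day after seeding with one drug alone or a fixed anchor-drug dose plus five library-drug doses (not always all listed) in √10 steps, and nuclei were counted on 4× images. Relative viability is the ratio of nuclei in treated wells to nuclei in vehicle wells, taken as the median of duplicate plates.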

NCI-H727 = tested on: NCI-H727
Method in brief: as §1

HCC-78 = tested on: HCC-78
Method in brief: as §1

HARA = tested on: HARA
Method in brief: as §1

HCC-366 = tested on: HCC-366
Method in brief: as §1

201T = tested on: 201T
Method in brief: as §1

PC-14 = tested on: PC-14
Method in brief: as §1

EBC-1 = tested on: EBC-1
Method in brief: as §1

NCI-H1437 = tested on: NCI-H1437
Method in brief: as §1

LCLC-97TM1 = tested on: LCLC-97TM1
Method in brief: as §1

COR-L23 = tested on: COR-L23
Method in brief: as §1

NCI-H2405 = tested on: NCI-H2405
Method in brief: as §1

NCI-H460 = tested on: NCI-H460
Method in brief: as §1

HCC-44 = tested on: HCC-44
Method in brief: as §1

LK-2 = tested on: LK-2
Method in brief: as §1

COR-L 105 = tested on: COR-L 105
Method in brief: as §1

A-427 = tested on: A-427
Method in brief: as §1

NCI-H2023 = tested on: NCI-H2023
Method in brief: as §1

NCI-H3122 = tested on: NCI-H3122
Method in brief: as §1

NCI-H1915 = tested on: NCI-H1915
Method in brief: as §1

NCI-H1666 = tested on: NCI-H1666
Method in brief: as §1

NCI-H1944 = tested on: NCI-H1944
Method in brief: as §1

NCI-H1975 = tested on: NCI-H1975
Method in brief: as §1

NCI-H1563 = tested on: NCI-H1563
Method in brief: as §1

Q: What does the source list for `Nc1cccc2c1CN(C1CCC(=O)NC1=O)C2=O` (stereo not drawn) [Lenalidomide] + CC1(C)CCC(c2ccc(Cl)cc2)=C(CN2CCN(c3ccc(C(=O)NS(=O)(=O)c4ccc(N[C@H](CCN5CCOCC5)CSc5ccccc5)c(S(=O)(=O)C(F)(F)F)c4)cc3)CC2)C1 [Navitoclax] (partner 0.5 µM)?
A: relative viability (HCC-15; first compound 0.253 µM): 0.698; relative viability (HCC-15; first compound 2.53 µM): 0.814; relative viability (HCC-15; first compound 8 µM): 0.676; relative viability (NCI-H727; first compound 0.253 µM): 0.449; relative viability (NCI-H727; first compound 2.53 µM): 0.387; relative viability (NCI-H727; first compound 8 µM): 0.345; relative viability (HCC-78; first compound 0.253 µM): 0.834; relative viability (HCC-78; first compound 0.8 µM): 0.72; relative viability (HCC-78; first compound 2.53 µM): 0.842; relative viability (HCC-78; first compound 8 µM): 0.654; relative viability (HARA; first compound 0.253 µM): 1.14; relative viability (HARA; first compound 0.8 µM): 1.12; relative viability (HARA; first compound 2.53 µM): 1.19; relative viability (HARA; first compound 8 µM): 1.2; relative viability (HCC-366; first compound 0.253 µM): 1.02; relative viability (HCC-366; first compound 0.8 µM): 1.19; relative viability (HCC-366; first compound 2.53 µM): 1.13; relative viability (HCC-366; first compound 8 µM): 1.08; relative viability (201T; first compound 0.253 µM): 1.21; relative viability (201T; first compound 0.8 µM): 1.22; relative viability (201T; first compound 2.53 µM): 1.19; relative viability (201T; first compound 8 µM): 1.22; relative viability (PC-14; first compound 0.253 µM): 0.907; relative viability (PC-14; first compound 0.8 µM): 1.02; relative viability (PC-14; first compound 2.53 µM): 1.08; relative viability (PC-14; first compound 8 µM): 1.05; relative viability (EBC-1; first compound 0.253 µM): 0.374; relative viability (EBC-1; first compound 0.8 µM): 0.399; relative viability (EBC-1; first compound 2.53 µM): 0.434; relative viability (EBC-1; first compound 8 µM): 0.481; relative viability (NCI-H1437; first compound 0.253 µM): 1.08; relative viability (NCI-H1437; first compound 0.8 µM): 1.09; relative viability (NCI-H1437; first compound 2.53 µM): 1.14; relative viability (NCI-H1437; first compound 8 µM): 1.14; relative viability (LCLC-97TM1; first compound 0.8 µM): 0.544; relative viability (LCLC-97TM1; first compound 2.53 µM): 0.502; relative viability (LCLC-97TM1; first compound 8 µM): 0.407; relative viability (COR-L23; first compound 0.253 µM): 0.986; relative viability (COR-L23; first compound 0.8 µM): 1.01; relative viability (COR-L23; first compound 2.53 µM): 0.997; relative viability (COR-L23; first compound 8 µM): 1.06; relative viability (NCI-H2405; first compound 0.253 µM): 0.83; relative viability (NCI-H2405; first compound 0.8 µM): 0.921; relative viability (NCI-H2405; first compound 2.53 µM): 0.793; relative viability (NCI-H2405; first compound 8 µM): 0.802; relative viability (NCI-H460; first compound 0.253 µM): 0.811; relative viability (NCI-H460; first compound 0.8 µM): 1.28; relative viability (NCI-H460; first compound 2.53 µM): 1.15; relative viability (NCI-H460; first compound 8 µM): 1.13; relative viability (HCC-44; first compound 0.253 µM): 0.966; relative viability (HCC-44; first compound 0.8 µM): 0.75; relative viability (HCC-44; first compound 2.53 µM): 1.1; relative viability (HCC-44; first compound 8 µM): 0.917; relative viability (LK-2; first compound 0.253 µM): 0.817; relative viability (LK-2; first compound 0.8 µM): 0.85; relative viability (LK-2; first compound 2.53 µM): 0.959; relative viability (LK-2; first compound 8 µM): 0.709; relative viability (COR-L 105; first compound 0.253 µM): 0.45; relative viability (COR-L 105; first compound 0.8 µM): 0.81; relative viability (COR-L 105; first compound 2.53 µM): 0.717; relative viability (COR-L 105; first compound 8 µM): 0.883; relative viability (A-427; first compound 0.253 µM): 0.99; relative viability (A-427; first compound 2.53 µM): 0.911; relative viability (A-427; first compound 8 µM): 0.832; relative viability (NCI-H2023; first compound 0.253 µM): 1; relative viability (NCI-H2023; first compound 0.8 µM): 1.13; relative viability (NCI-H2023; first compound 2.53 µM): 1.05; relative viability (NCI-H2023; first compound 8 µM): 1.01; relative viability (NCI-H3122; first compound 0.253 µM): 1; relative viability (NCI-H3122; first compound 0.8 µM): 1.08; relative viability (NCI-H3122; first compound 2.53 µM): 0.997; relative viability (NCI-H3122; first compound 8 µM): 1.07; relative viability (NCI-H1915; first compound 0.253 µM): 0.775; relative viability (NCI-H1915; first compound 0.8 µM): 0.782; relative viability (NCI-H1915; first compound 2.53 µM): 0.816; relative viability (NCI-H1915; first compound 8 µM): 0.835; relative viability (NCI-H1666; first compound 0.253 µM): 0.915; relative viability (NCI-H1666; first compound 0.8 µM): 0.893; relative viability (NCI-H1666; first compound 2.53 µM): 0.837; relative viability (NCI-H1666; first compound 8 µM): 0.856; relative viability (NCI-H1944; first compound 0.253 µM): 0.984; relative viability (NCI-H1944; first compound 0.8 µM): 1.08; relative viability (NCI-H1944; first compound 2.53 µM): 1.02; relative viability (NCI-H1944; first compound 8 µM): 0.873; relative viability (NCI-H1975; first compound 0.253 µM): 1.13; relative viability (NCI-H1975; first compound 0.8 µM): 1.07; relative viability (NCI-H1975; first compound 2.53 µM): 1.25; relative viability (NCI-H1975; first compound 8 µM): 1.19

Q: What does the source list for `Nc1cccc2c1CN(C1CCC(=O)NC1=O)C2=O` (stereo not drawn) [Lenalidomide] + CCNC(=O)c1noc(-c2cc(C(C)C)c(O)cc2O)c1-c1ccc(CN2CCOCC2)cc1 [Luminespib] (partner 0.01 µM)?
A: relative viability (HCC-15; first compound 0.253 µM): 0.485; relative viability (HCC-15; first compound 0.8 µM): 0.303; relative viability (HCC-15; first compound 2.53 µM): 0.359; relative viability (HCC-15; first compound 8 µM): 0.363; relative viability (NCI-H727; first compound 0.253 µM): 0.45; relative viability (NCI-H727; first compound 0.8 µM): 0.316; relative viability (NCI-H727; first compound 2.53 µM): 0.473; relative viability (NCI-H727; first compound 8 µM): 0.477; relative viability (HARA; first compound 0.253 µM): 0.679; relative viability (HARA; first compound 2.53 µM): 0.614; relative viability (HARA; first compound 8 µM): 1.03; relative viability (201T; first compound 0.253 µM): 1.05; relative viability (201T; first compound 2.53 µM): 1.03; relative viability (201T; first compound 8 µM): 1.09; relative viability (PC-14; first compound 0.253 µM): 0.152; relative viability (PC-14; first compound 0.8 µM): 0.191; relative viability (PC-14; first compound 2.53 µM): 0.151; relative viability (PC-14; first compound 8 µM): 0.133; relative viability (NCI-H1437; first compound 0.253 µM): 1.19; relative viability (NCI-H1437; first compound 0.8 µM): 1.08; relative viability (NCI-H1437; first compound 2.53 µM): 1.11; relative viability (NCI-H1437; first compound 8 µM): 1.23; relative viability (LCLC-97TM1; first compound 0.253 µM): 0.763; relative viability (LCLC-97TM1; first compound 0.8 µM): 0.707; relative viability (LCLC-97TM1; first compound 2.53 µM): 0.848; relative viability (LCLC-97TM1; first compound 8 µM): 0.761; relative viability (COR-L23; first compound 0.253 µM): 0.683; relative viability (COR-L23; first compound 0.8 µM): 0.766; relative viability (COR-L23; first compound 2.53 µM): 0.735; relative viability (COR-L23; first compound 8 µM): 0.758; relative viability (NCI-H2405; first compound 0.253 µM): 0.665; relative viability (NCI-H2405; first compound 0.8 µM): 0.76; relative viability (NCI-H2405; first compound 2.53 µM): 0.757; relative viability (NCI-H2405; first compound 8 µM): 0.644; relative viability (NCI-H460; first compound 0.253 µM): 0.0318; relative viability (NCI-H460; first compound 0.8 µM): 0.0303; relative viability (NCI-H460; first compound 2.53 µM): 0.035; relative viability (NCI-H460; first compound 8 µM): 0.0323; relative viability (HCC-44; first compound 0.253 µM): 0.988; relative viability (HCC-44; first compound 2.53 µM): 1.4; relative viability (HCC-44; first compound 8 µM): 1.23; relative viability (LK-2; first compound 0.253 µM): 0.195; relative viability (LK-2; first compound 0.8 µM): 0.179; relative viability (LK-2; first compound 2.53 µM): 0.173; relative viability (LK-2; first compound 8 µM): 0.193; relative viability (COR-L 105; first compound 0.253 µM): 0.891; relative viability (COR-L 105; first compound 0.8 µM): 0.574; relative viability (COR-L 105; first compound 2.53 µM): 0.836; relative viability (COR-L 105; first compound 8 µM): 0.994; relative viability (A-427; first compound 0.253 µM): 0.807; relative viability (A-427; first compound 0.8 µM): 1; relative viability (A-427; first compound 2.53 µM): 0.914; relative viability (A-427; first compound 8 µM): 1.01; relative viability (NCI-H2023; first compound 0.253 µM): 0.869; relative viability (NCI-H2023; first compound 0.8 µM): 0.915; relative viability (NCI-H2023; first compound 2.53 µM): 0.685; relative viability (NCI-H2023; first compound 8 µM): 0.824; relative viability (NCI-H3122; first compound 0.253 µM): 0.0887; relative viability (NCI-H3122; first compound 0.8 µM): 0.0863; relative viability (NCI-H3122; first compound 2.53 µM): 0.0693; relative viability (NCI-H3122; first compound 8 µM): 0.102; relative viability (NCI-H1915; first compound 0.253 µM): 0.818; relative viability (NCI-H1915; first compound 0.8 µM): 0.845; relative viability (NCI-H1915; first compound 2.53 µM): 0.802; relative viability (NCI-H1915; first compound 8 µM): 0.915; relative viability (NCI-H1563; first compound 0.253 µM): 0.535; relative viability (NCI-H1563; first compound 0.8 µM): 0.526; relative viability (NCI-H1563; first compound 2.53 µM): 0.468; relative viability (NCI-H1563; first compound 8 µM): 0.581; relative viability (NCI-H1666; first compound 0.253 µM): 0.977; relative viability (NCI-H1666; first compound 2.53 µM): 1.02; relative viability (NCI-H1666; first compound 8 µM): 1.04; relative viability (NCI-H1944; first compound 0.253 µM): 0.675; relative viability (NCI-H1944; first compound 0.8 µM): 0.777; relative viability (NCI-H1944; first compound 2.53 µM): 0.871; relative viability (NCI-H1944; first compound 8 µM): 0.502; relative viability (NCI-H1975; first compound 0.253 µM): 0.194; relative viability (NCI-H1975; first compound 0.8 µM): 0.235; relative viability (NCI-H1975; first compound 2.53 µM): 0.251; relative viability (NCI-H1975; first compound 8 µM): 0.196
